# In US9085555B2, “Complement pathway modulators and uses thereof” (priority 2011, dated 2015):
# Target: Factor D (Homo sapiens (Human), UniProt P00746)
# Assay: biochemical
# Format: biochemical
# Conditions: not given
# Sequence of Factor D (P00746 26-253): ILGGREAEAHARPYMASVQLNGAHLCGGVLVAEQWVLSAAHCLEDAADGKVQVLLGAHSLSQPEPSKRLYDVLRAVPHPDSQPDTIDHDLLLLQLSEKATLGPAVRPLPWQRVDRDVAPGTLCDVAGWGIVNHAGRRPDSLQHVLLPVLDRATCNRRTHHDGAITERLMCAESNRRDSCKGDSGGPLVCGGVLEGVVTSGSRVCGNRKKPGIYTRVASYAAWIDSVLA
row,Structure (SMILES),IC50 [nM]
1,"CO[C@H]1[C@@H](C(=O)NCc2cccc(Cl)c2F)N(C(=O)Cn2cc(C(C)=O)c3ccccc32)C[C@@H]1F [Example 505, (2S,3S,4S)-1-[2-(3-Acetyl-indol-1-yl)-acetyl]-4-fluoro-3-methoxy-pyrrolidine-2-carboxylic acid 3-chloro-2-fluoro-benzylamide]",14

# Same assay, conditions: read-out: IC50
row,Structure (SMILES),IC50 [nM]
1,"COc1ccc2c(C(C)=O)cn(CC(=O)N3C[C@H](F)C[C@H]3C(=O)NCc3cccc(Cl)c3F)c2c1 [Example 500, (2S,4R)-1-[2-(3-Acetyl-6-methoxy-indol-1-yl)-acetyl]-4-fluoro-pyrrolidine-2-carboxylic acid 3-chloro-2-fluoro-benzylamide]",36
2,"COc1ccc2c(c1)c(C(C)=O)cn2CC(=O)N1CCCC[C@H]1C(=O)NCc1cccc(Cl)c1F [Example 501, (S)-1-[2-(3-Acetyl-5-methoxy-indol-1-yl)-acetyl]-piperidine-2-carboxylic acid 3-chloro-2-fluoro-benzylamide]",471
3,"CC(=O)c1cn(CC(=O)N2C[C@](C)(F)C[C@H]2C(=O)NCc2cccc(Cl)c2F)c2ccncc12 [Example 502, (2S,4R)-1-[2-(3-Acetyl-pyrrolo[3,2-c]pyridin-1-yl)-acetyl]-4-fluoro-4-methyl-pyrrolidine-2-carboxylic acid 3-chloro-2-fluoro-benzylamide]",449
4,"CC(=O)c1cn(CC(=O)N2[C@@H]3C[C@@H]3C[C@H]2C(=O)N[C@H](CCO)c2cccc(Cl)c2F)c2ccccc12 [Example 504, (1R,3S,5R)-2-[2-(3-Acetyl-indol-1-yl)-acetyl]-2-aza bicyclo[3.1.0]hexane-3-carboxylic acid [(R)-1-(3-chloro-2-fluoro-phenyl)-3-hydroxy-propyl]-amide]",57
5,"CC(=O)c1cn(CC(=O)N2C[C@H]3C[C@H]3[C@H]2C(=O)NCc2cccc(Cl)c2F)c2cnccc12 [Example 506, (1R,2S,5S)-3-[2-(3-Acetyl-pyrrolo[2,3-c]pyridin-1-yl)-acetyl]-3-aza-bicyclo[3.1.0] hexane-2-carboxylic acid 3-chloro-2-fluoro-benzylamide]",331
6,"CC(=O)c1cn(CC(=O)N2C[C@H](F)C[C@H]2C(=O)NCc2cccc(Cl)c2F)c2ccccc12 [Example 507, (2S,4R)-1-[2-(3-Acetyl-indol-1-yl)-acetyl]-4-fluoro-pyrrolidine-2-carboxylic acid 3-chloro-2-fluoro-benzylamide]",16
7,"CC(=O)c1cn(CC(=O)N2C[C@H](F)C[C@H]2C(=O)NCc2cccc(Cl)c2F)c2ccc(OCc3ccccc3)cc12 [Example 508, (2S,4R)-1-[2-(3-Acetyl-5-benzyloxy-indol-1-yl)-acetyl]-4-fluoro-pyrrolidine-2-carboxylic acid 3-chloro-2-fluoro-benzylamide]",12
8,"CC(=O)c1cn(CC(=O)N2C[C@H](F)C[C@H]2C(=O)NCc2cccc(Cl)c2F)c2cc(OC(F)(F)F)ccc12 [Example 509, (2S,4R)-1-[2-(3-Acetyl-6-trifluoromethoxy-indol-1-yl)-acetyl]-4-fluoro-pyrrolidine-2-carboxylic acid 3-chloro-2-fluoro-benzylamide]",58
9,"CC(=O)c1cn(CC(=O)N2[C@@H]3C[C@@H]3C[C@H]2C(=O)NCc2cccc(Cl)c2F)c2ccccc12 [Example 510, (1R,3S,5R)-2-[2-(3-Acetyl-indol-1-yl)-acetyl]-2-aza-bicyclo[3.1.0]hexane-3-carboxylic acid 3-chloro-2-fluoro-benzylamide]",16
10,"CC(=O)c1cn(CC(=O)N2C[C@](C)(F)C[C@H]2C(=O)NCc2cccc(Cl)c2F)c2ccccc12 [Example 511, (2S,4R)-1-[2-(3-Acetyl-indol-1-yl)-acetyl]-4-fluoro-4-methyl-pyrrolidine-2-carboxylic acid 3-chloro-2-fluoro-benzylamide]",71
11,"CC(=O)c1cn(CC(=O)N2[C@@H]3CC[C@@H](C3)[C@H]2C(=O)NCc2cccc(Cl)c2F)c2ccccc12 [Example 512, (1R,3S,4S)-2-[2-(3-Acetyl-indol-1-yl)-acetyl]-2-aza-bicyclo[2.2.1]heptane-3-carboxylic acid 3-chloro-2-fluoro-benzylamide]",411
12,"CC(=O)c1cn(CC(=O)N2CCS[C@H]2C(=O)NCc2cccc(Cl)c2F)c2ncccc12 [Example 513, (S)-3-[2-(3-Acetyl-pyrrolo[2,3-b]pyridin-1-yl)-acetyl]-thiazolidine-2-carboxylic acid 3-chloro-2-fluoro-benzylamide]",193
13,"CC(=O)c1cn(CC(=O)N2C[C@H](F)C[C@H]2C(=O)Nc2cccc(OC(F)(F)F)c2F)c2ccccc12 [Example 514, (2S,4R)-1-[2-(3-Actyl-indol-1-yl)-acetyl]-4-fluoro-pyrrolidine-2-carboxylic acid (2-fluoro-3-trifluoromethoxy-phenyl)-amide]",95
14,"CC(=O)c1cn(CC(=O)N2[C@@H]3C[C@@H]3C[C@H]2C(=O)Nc2cc(Br)cc(-c3nnn[nH]3)c2)c2ccccc12 [Example 515, (1R,3S,5R)-2-[2-(3-Acetyl-indol-1-yl)-acetyl]-2-aza-bicyclo[3.1.0]hexane-3-carboxylic acid [3-bromo-5-(2H-tetrazol-5-yl)-phenyl]-amide]",268
15,"CC(=O)c1cn(CC(=O)N2C[C@H](F)C[C@H]2C(=O)NCc2cccc(Br)c2F)c2ccccc12 [Example 516, (2S,4R)-1-[2-(3-Acetyl-indol-1-yl)-acetyl]-4-fluoro-pyrrolidine-2-carboxylic acid 3-bromo-2-fluoro-benzyl amide]",8
16,"NC(=O)c1cn(CC(=O)N2C[C@H](F)C[C@H]2C(=O)Nc2cccc(C(F)(F)F)c2F)c2ccccc12 [Example 517, 1-{2-[(2S,4R)-4-Fluoro-2-(2-fluoro-3-trifluoromethyl-phenylcarbamoyl)-pyrrolidin-1-yl]-2-oxo-ethyl}-1H-indole-3-carboxylic acid amide]",1460
17,"CC(=O)c1cn(CC(=O)N2C[C@H](F)C[C@H]2C(=O)N[C@H](CO)c2cccc(Cl)c2F)c2ccccc12 [Example 518, (2S,4R)-1-[2-(3-Acetyl-indol-1-yl)-acetyl]-4-fluoro-pyrrolidine-2-carboxylic acid [(S)-1-(3-chloro-2-fluoro-phenyl)-2-hydroxy-ethyl]-amide]",41
18,"CNC(=O)c1cn(CC(=O)N2C[C@H](F)C[C@H]2C(=O)NCc2cccc(Cl)c2F)c2ccccc12 [Example 519, 1-{2-[(2S,4R)-2-(3-Chloro-2-fluoro-benzylcarbamoyl)-4-fluoro-pyrrolidin-1-yl]-2-oxo-ethyl}-1H-indole-3-carboxylic acid methylamide]",722
19,"CO[C@H]1[C@@H](C(=O)NCc2cccc(Cl)c2F)N(C(=O)Cn2cc(C(C)=O)c3cccnc32)C[C@@H]1F [Example 520, (2S,3S,4S)-1-[2-(3-Acetyl-pyrrolo[2,3-b]pyridin-1-yl)-acetyl]-4-fluoro-3-methoxy-pyrrolidine-2-carboxylic acid 3-chloro-2-fluoro-benzylamide]",22
20,"CC(=O)c1cn(CC(=O)N2C[C@H](F)C[C@H]2C(=O)NCc2cc(-c3nnn[nH]3)cc(Cl)c2F)c2ccccc12 [Example 521, (2S,4R)-1-[2-(3-Acetyl-indol-1-yl)-acetyl]-4-fluoro-pyrrolidine-2-carboxylic acid 3-chloro-2-fluoro-5-(1H-tetrazol-5-yl)-benzylamide]",37
21,"CC(=O)c1cn(CC(=O)N2[C@@H]3C[C@@H]3C[C@H]2C(=O)N[C@H](CN(C)C)c2cccc(Cl)c2F)c2ccccc12 [Example 522, (1R,3S,5R)-2-[2-(3-Acetyl-indol-1-yl)-acetyl]-2-aza-bicyclo[3.1.0]hexane-3-carboxylic acid [(S)-1-(3-chloro-2-fluoro-phenyl)-2-dimethylamino-ethyl]-amide]",415
22,"CC(=O)c1cn(CC(=O)N2[C@@H]3C[C@@H]3C[C@H]2C(=O)NCc2cccc(Cl)c2F)c2ccncc12 [Example 524, (1R,3S,5R)-2-[2-(3-Acetyl-pyrrolo[3,2-c]pyridin-1-yl)-acetyl]-2-aza-bicyclo[3.1.0]hexane-3-carboxylic acid 3-chloro-2-fluoro-benzylamide]",64
23,"CC(=O)c1cn(CC(=O)N2[C@@H]3C[C@@H]3C[C@H]2C(=O)NCc2cc(-c3nnn[nH]3)cc(Cl)c2F)c2ccccc12 [Example 525, (1R,3S,5R)-2-[2-(3-Acetyl-indol-1-yl)-acetyl]-2-aza-bicyclo[3.1.0]hexane-3-carboxylic acid 3-chloro-2-fluoro-5-(1H-tetrazol-5-yl)-benzylamide]",36
24,"COC(=O)c1ccc2c(C(C)=O)cn(CC(=O)N3[C@@H]4C[C@@H]4C[C@H]3C(=O)NCc3cccc(Cl)c3F)c2c1 [Example 526, 3-Acetyl-1-{2-[(1R,3S,5R)-3-(3-chloro-2-fluoro-benzylcarbamoyl)-2-aza-bicyclo[3.1.0]hex-2-yl]-2-oxo-ethyl}-1H-indole-6-carboxylic acid methyl ester]",54
25,"CC(=O)c1cn(CC(=O)N2[C@@H]3C[C@@H]3C[C@H]2C(=O)NCc2cc(C#N)cc(Cl)c2F)c2ccccc12 [Example 527, (1R,3S,5R)-2-[2-(3-Acetyl-indol-1-yl)-acetyl]-2-aza-bicyclo[3.1.0]hexane-3-carboxylic acid 3-chloro-5-cyano-2-fluoro-benzylamide]",483
26,"NC(=O)c1cn(CC(=O)N2C[C@H](F)C[C@H]2C(=O)NCc2cccc(Cl)c2F)c2cc(OC(F)F)ccc12 [Example 528, 1-{2-[(2S,4R)-2-(3-Chloro-2-fluoro-benzylcarbamoyl)-4-fluoro-pyrrolidin-1-yl]-2-oxo-ethyl}-6-difluoromethoxy-1H-indole-3-carboxylic acid amide]",75
27,"CC(=O)c1cn(CC(=O)N2C[C@](C)(F)C[C@H]2C(=O)NCc2cccc(Cl)c2F)c2ncccc12 [Example 530, (2S,4R)-1-[2-(3-Acetyl-pyrrolo[2,3-b]pyridin-1-yl)-acetyl]-4-fluoro-4-methyl-pyrrolidine-2-carboxylic acid 3-chloro-2-fluoro-benzylamide]",72
28,"CC(=O)c1cn(CC(=O)N2C[C@H](F)C[C@H]2C(=O)NCc2cccc(Cl)c2F)c2cc(Cl)ccc12 [Example 531, (2S,4R)-1-[2-(3-Acetyl-6-chloro-indol-1-yl)-acetyl]-4-fluoro-pyrrolidine-2-carboxylic acid 3-chloro-2-fluoro-benzylamide]",11
